In patent US8716242B2, “β-hairpin peptidomimetics” (priority 2009, dated 2014):
Where two headings read alike, the source gives them in different places. Bridge positions count the residues as written; N and C are the ends. Square brackets hold non-standard residues; d marks the D form. Peptide text beside a SMILES is read from it. * marks the point of attachment. Gly(Dodecyl) = CCCCCCCCCCCC[C@H](N)C(=O)O; Lauroyl = CCCCCCCCCCCC(=O)*; Decanoyl = CCCCCCCCCC(=O)*; Octanoyl = CCCCCCCC(=O)*; Dab = NCC[C@H](N)C(=O)O; X3 = CCCCCCCCCC*

Tests used:
[1] = test system: human red blood cells (hRBC); assay: Hemolysis of human red blood cells; type: cell-based; settings: 20% hRBC, 1 h, 37° C.
Protocol: The peptides were tested for their hemolytic activity against human red blood cells (hRBC). Fresh hRBC were washed three times with phosphate buffered saline (PBS) and centrifuged for 10 min at 2000×g. Compounds (100 μM) were incubated with 20% hRBC (v/v) for 1 h at 37° C. and shaking at 300 rpm. The final erythrocyte concentration was approximately 0.9×10^9 cells/mL. A value of 0% and 100% cell lyses, respectively, was determined by incubation of hRBC in the presence of PBS containing 0.001% acetic acid and 2.5% Triton X-100 in H2O, respectively. The samples were centrifuged, the supernatants were 8-fold diluted in PBS buffer and the optical densities (OD) were measured at 540 nm. The 100% lyses value (OD540H2O) gave an OD540 of approximately 0.5-1.0.
(§1) Percent hemolysis was calculated as follows: (OD540peptide/OD540H2O)×100%. 2.6. Plasma Stability

human CXCR4 = target: T1, human CXCR4 (Homo sapiens, UniProt P61073); assay: Ca2+-assay: CXCR4-antagonizing activity (SDF-1 induced calcium mobilization); type: cell-based
T1 construct: expressed in transfected cells; host or cells: mouse pre-B cell line 300-19
T1 sequence (P61073 whole entry): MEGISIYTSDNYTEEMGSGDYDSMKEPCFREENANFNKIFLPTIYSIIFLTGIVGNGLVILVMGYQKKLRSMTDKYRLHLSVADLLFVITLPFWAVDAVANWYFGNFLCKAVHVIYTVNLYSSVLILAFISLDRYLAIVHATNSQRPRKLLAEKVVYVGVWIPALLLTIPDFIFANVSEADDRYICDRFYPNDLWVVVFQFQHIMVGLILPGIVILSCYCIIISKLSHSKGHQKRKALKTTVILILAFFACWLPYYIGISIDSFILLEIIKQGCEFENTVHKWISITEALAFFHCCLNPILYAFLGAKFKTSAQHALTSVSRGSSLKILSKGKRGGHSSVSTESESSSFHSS
Description: 2.3. Ca^2+-Assay: CXCR4-Antagonizing Activity of the Peptides
Increases in intracellular calcium were monitored using a Flexstation 384 (Molecular Devices, Sunnyvale, Calif.) to assay the peptides for CXCR4 antagonism in a mouse pre-B cell line 300-19 stably transfected with human CXCR4 (E. Oberlin, A. Amara, F. Bachelerie, C. Bessia, J.-L. Virelizier, F. Arenzana-Seisdedos, O, Schwartz, J.-M. Heard, I. Clark-Lewis, D. F. Legler, M. Loetscher, M. Baggiolini, B. Moser, Nature 1996, 382, 833-835; M. Loetscher, T. Geiser, T. O'Reilly, R. Zwalen, M. Baggiolini, B. Moser, J. Biol. Chem. 1994, 269, 232-237; M. D'Apuuo, A. Rolink, M. Loetscher, J. A. Hoxie, I. Clark-Lewis, F. Melchors, M. Baggiolini, B. Moser, Eur. J. Immunol. 1997, 27, 1788-1793). The cells were batch loaded with the Calcium 4 Assay kit (Molecular Devices) in assay buffer (Hanks Balanced salt solution [HBSS], 20 mM HEPES, pH 7.4, 0.1% BSA) for 1 h at room temperature and labeled cells were dispensed into black well assays plates (Costar No. 3603). Calcium mobilization induced by stromal-derived factor-1 (SDF-1) was measured in the Flexstation 384 (excitation: 485 nm; emission: 525 nm) for 90 seconds. Antagonist activity of peptides was determined by spiking the cells with compounds prior to SDF-1 addition. Dose response curves (compound concentration versus % maximum response for SDF-1) were determined for each antagonist and IC50 values were calculated by fitting the data to a four parameter logistic equation using SoftmaxPro 4.8 (Molecular Devices).

[2] = Plasma stability in mouse plasma; type: in vitro ADME; settings: mouse plasma, 37° C.; for remaining at 24 h, 10 μM: 1440 min, read-out: mouse pl. cpd left at 1440 min
Protocol: as §1
(§2) The stability of the peptides in human and mouse plasma was determined by applying the following method: 346.5 μL/deep well of freshly thawed human plasma (Basler Blutspendedienst) and mouse plasma (Harlan Sera-Lab, UK), respectively, were spiked with 3.5 μL/well of compound dissolved in DMSO/H2O ([…] [v/v], 1 mM, triplicate) and incubated at 37° C. At t=0, 15, 30, 60, 120, 240 and 1440 min aliquots of 50 μL were transferred to filtration plate wells containing 150 μL/well of 2% formic acid in acetonitrile. Following shaking for 2 min the occurred suspensions were filtrated by vacuum and 50 μL of each filtrate was mixed with 100 μL of 1% formic acid in H2O. After transfer to a propylene microtiter plate, the filtrates were analyzed by LC/MS as follows: Column: Waters, XBridge C18, mobile phases: (A) water+0.1% formic acid and (B) acetonitrile/water, 95/5 (v/v)+0.1% formic acid, gradient: 5%-100% (B) in 2 minutes, electrospray ionization, MRM detection (triple quadrupole). The peak areas were determined and triplicate values are averaged. The stability is expressed in percent of the initial value at t=0. (tx/t0×100). By using the TREND function of EXCEL (Microsoft Office 2003) T1/2 were determined.

[3] = Cytotoxicity, MTT reduction assay, COS-7 cells; type: cell-based; settings: African green monkey, COS-7 cells (CRL-1651), 12.5-50 μM
Protocol: (§3) Mouse pre-B cells were cultured in RPMI1640 plus 5% FBS, antibiotic/antimycotic, non essential amino acid, 50 μM β-mercaptoethanol and 1 mM natrium pyruvate. HELA cells were maintained in RPMI1640 plus 10% FBS, pen/strept and 2 mM L-glutamine. Cos-7 cells were grown in DMEM medium with […] glucose supplemented with 10% FCS, pen/strept and 2 mM L-glutamine. All cell lines were grown at 37° C. at 5% CO2. Cell media, media supplements, PBS-buffer, HEPES, antibiotic/antimycotic, pen/strept, non essential amino acid, L-glutamine, β-mercaptoethanol and sera were purchased from Gibco (Pailsey, UK). All fine chemicals were supplied by Merck (Darmstadt, Germany).
(§4) The cytotoxicity of the peptides to HELA cells (Acc57) and COS-7 cells (CRL-1651) was determined using the MTT reduction assay (T. Mossman, J. Immunol. Meth. 1983, 65, 55-63; M. V. Berridge, A. S. Tan, Arch. Biochem. Biophys. 1993, 303, 474-482). Briefly, the method was as follows: 4000 HELA cells/well and 3400 COS-7 cells/well were seeded and grown in 96-well microtiter plates for 24 h at 37° C. at 5% CO2. Thereafter, time zero (Tz) was determined by MTT reduction (see below). The supernatant of the remaining wells was discarded, and fresh medium and compounds in serial dilutions (12.5, 25 and 50 μM, triplicates) were pipetted into the wells. After incubation of the cells for 48 h at 37° C. at 5% CO2 the supernatant was discarded again and 100 μL MTT reagent (0.5 mg/mL in RPMI1640 and DMEM, respectively)/well was added. Following incubation at 37° C. for 2-4 h the media were aspirated and the cells were spiked (100 μL isopropanol/well). The absorbance of the solubilized formazan was measured at 595 nm (OD595peptide). For each concentration averages were calculated from triplicates. The percentage of growth was calculated as follows: (OD595peptide-OD595Tz-OD595Empty well)/(OD595Tz-OD595Empty well)×100%. The GI50 (Growth Inhibition) concentrations were calculated for each peptide by using a trend line function for the concentrations (50, 25, 12.5 and 0 μM), the corresponding percentages and the value 50, (=TREND (C50: C0, %50:%0,50).

[4] = Cytotoxicity, MTT reduction assay, HELA cells; type: cell-based; settings: human, HELA cells (Acc57), 12.5-50 μM
Protocol: as §3, §4

[5] = Plasma stability in human plasma; type: in vitro ADME; settings: human plasma, 37° C.; for remaining at 24 h, 10 μM: 1440 min, read-out: human pl. cpd left at 1440 min; for human pl. T1/2: up to 1440 min
Protocol: as §1, §2

[6] = mouse pre-B cell line 300-19 transfected with human CXCR4, SDF-1 induced Ca2+ mobilization, read-out: IC50% [nM] ± SD, CXCR4 receptor

SMILES	Hemolysis at 100 μM [1] [%]	IC50 (human CXCR4; [6]) [nM]	remaining at 24 h, 10 μM [2] [%]	mouse pl. T1/2 ([2]; up to 1440 min) [h]	GI50 at 48 h [3] [µM]	GI50 at 48 h [4] [µM]	remaining at 24 h, 10 μM [5] [%]	human pl. T1/2 [5] [h]	half-life at 10 μM ([2]; up to 1440 min, read-out: mouse pl. T1/2) [h]	IC50 (human CXCR4) [nM]
CCCCCCCCCCCC(=O)NCC[C@@H]1NC(=O)[C@H](Cc2ccc(O)cc2)NC(=O)[C@@H]2CCCN2C(=O)[C@H]2CCCN2C(=O)[C@H](CCCCN)NC(=O)[C@H](CCC(N)=O)NC(=O)[C@H](Cc2ccc(O)cc2)NC(=O)[C@@H]2CSSC[C@H](NC(=O)[C@H](C)NC1=O)C(=O)N[C@@H](CCCNC(=N)N)C(=O)N[C@@H](C)C(=O)N1CCC[C@@H]1C(=O)N[C@@H](CCN)C(=O)N[C@@H](CCCNC(=N)N)C(=O)N[C@@H](Cc1ccc(O)cc1)C(=O)N2 [Ex. 1] (cyclo(Y[Dab](Lauroyl)ACRA[dP][Dab]RYCYQK[dP]P); disulfide 4-11)	2.6	94 ± 2.1	77	24	> 50	> 28	87	24	–	–
CCCCCCCCCCCC[C@@H]1NC(=O)[C@H](Cc2c[nH]cn2)NC(=O)[C@H](Cc2ccc(O)cc2)NC(=O)[C@@H]2CCCN2C(=O)[C@H]2CCCN2C(=O)[C@H](CCCCN)NC(=O)[C@H](CCC(N)=O)NC(=O)[C@H](Cc2ccc(O)cc2)NC(=O)[C@@H]2CSSC[C@H](NC1=O)C(=O)N[C@@H](CCCNC(=N)N)C(=O)N[C@@H](C)C(=O)N1CCC[C@@H]1C(=O)N[C@@H](CCN)C(=O)N[C@@H](CCCNC(=N)N)C(=O)N[C@@H](Cc1ccc(O)cc1)C(=O)N2 [Ex. 2] (cyclo(YH[Gly(Dodecyl)]CRA[dP][Dab]RYCYQK[dP]P); disulfide 4-11)	1.7	55.8 ± 6	62	–	> 32	> 13	96	24	23.4	–
CCCCCCCC(=O)NCCCC[C@@H]1NC(=O)[C@H](Cc2c[nH]cn2)NC(=O)[C@H](Cc2ccc(O)cc2)NC(=O)[C@@H]2CCCN2C(=O)[C@H]2CCCN2C(=O)[C@H](CCCCN)NC(=O)[C@H](CCC(N)=O)NC(=O)[C@H](Cc2ccc(O)cc2)NC(=O)[C@@H]2CSSC[C@H](NC1=O)C(=O)N[C@@H](CO)C(=O)N[C@@H](C)C(=O)N1CCC[C@@H]1C(=O)N[C@@H](CCN)C(=O)N[C@@H](CCCNC(=N)N)C(=O)N[C@@H](Cc1ccc(O)cc1)C(=O)N2 [Ex. 3] (cyclo(YHK(Octanoyl)CSA[dP][Dab]RYCYQK[dP]P); disulfide 4-11)	0.6	19.4 ± 13	86	24	> 50	> 45	86	24	–	–
CCCCCCCCCCCC(=O)NCC[C@@H]1NC(=O)[C@H](Cc2ccc(O)cc2)NC(=O)[C@@H]2CSSC[C@H](NC(=O)[C@H](C)NC(=O)[C@H](Cc3c[nH]cn3)NC(=O)[C@H](Cc3ccc(O)cc3)NC(=O)[C@@H]3CCCN3C(=O)[C@H]3CCCN3C(=O)[C@H](CCCCN)NC1=O)C(=O)N[C@@H](CCCNC(=N)N)C(=O)N[C@@H](C)C(=O)N1CCC[C@@H]1C(=O)N[C@@H](CCN)C(=O)N[C@@H](CCCNC(=N)N)C(=O)N[C@@H](Cc1ccc(O)cc1)C(=O)N2 [Ex. 11] (cyclo(YHACRA[dP][Dab]RYCY[Dab](Lauroyl)K[dP]P); disulfide 4-11)	0.7	7.3 ± 4.7	–	–	> 50	> 29	82	24	–	–
CCCCCCCCCC(=O)NCCCC[C@@H]1NC(=O)[C@H](Cc2ccc(O)cc2)NC(=O)[C@@H]2CSSC[C@H](NC(=O)[C@H]([C@@H](C)O)NC(=O)[C@H](Cc3c[nH]cn3)NC(=O)[C@H](Cc3ccc(O)cc3)NC(=O)[C@@H]3CCCN3C(=O)[C@H]3CCCN3C(=O)[C@H](CCCCN)NC1=O)C(=O)N[C@@H](CCCNC(=N)N)C(=O)NCC(=O)N1CCC[C@@H]1C(=O)N[C@@H](CCN)C(=O)N[C@@H](CCCNC(=N)N)C(=O)N[C@@H](Cc1ccc(O)cc1)C(=O)N2 [Ex. 15] (cyclo(YHTCRG[dP][Dab]RYCYK(Decanoyl)K[dP]P); disulfide 4-11)	0.6	11.2 ± 4	–	–	> 40	> 50	73	24	–	–
CCCCCCCCCCOC[C@@H]1NC(=O)[C@H](Cc2ccc(O)cc2)NC(=O)[C@@H]2CSSC[C@H](NC(=O)[C@H]([C@@H](C)O)NC(=O)[C@H](Cc3c[nH]cn3)NC(=O)[C@H](Cc3ccc(O)cc3)NC(=O)[C@@H]3CCCN3C(=O)[C@H]3CCCN3C(=O)[C@H](CCC(N)=O)NC1=O)C(=O)N[C@@H](CCCNC(=N)N)C(=O)NCC(=O)N1CCC[C@@H]1C(=O)N[C@@H](CCN)C(=O)N[C@@H](CCCNC(=N)N)C(=O)N[C@@H](Cc1ccc(O)cc1)C(=O)N2 [Ex. 30] (cyclo(YHTCRG[dP][Dab]RYCYS(X3)Q[dP]P); disulfide 4-11)	5.5	–	–	–	> 50	> 50	54	24	–	55.1 ± 19
